Source: US9303017B2, “2,5-disubstituted-pyridyl nicotinic ligands, and methods of use thereof” (Georgetown University, priority 2011, dated 2016)

What was measured:
[1] = molecular target: rat α3β4 nAChRs (Rattus norvegicus (Rat), UniProt P04757+P12392); test: 86Rb+ efflux assay (activation and desensitization), α3β4; assay type: cell-based; conditions: read-out: IC50(10′) α3β4 nAChRs
Protocol: In Vitro Effects on nAChR Function. […] Their agonist activities were assessed by measuring stimulated ^86Rb^+ efflux from stably transfected cells, either expressing human α4β2 nAChRs or rat α3β4 receptors.
Cell Lines and Cell Culture. The cell lines expressing defined rat nAChR subtypes were established previously by stably transfecting HEK 293 cells with rat nAChR subunit genes. The cell line expressing human α4β2 nAChRs, YXα4β2H1, was established recently. These cell lines were maintained in minimum essential medium (MEM) supplemented with 10% fetal bovine serum, 100 units/mL penicillin G, […] and selective antibiotics at 37° C. with 5% CO2 in a humidified incubator. Fetal bovine serum was provided by Gemini Bio-Products (Woodland, Calif.). Tissue culture medium and antibiotics were obtained from Invitrogen Corporation (Carlsbad, Calif.), unless otherwise stated.
^86Rb^+ Efflux Assay. Functional properties of compounds at nAChRs expressed in the transfected cells were measured using ^86Rb^+ efflux assays as described previously. In brief, cells expressing human α4β2 or rat α3β4 nAChRs were plated into 24-well plates coated with poly-D-lysine. The plated cells were grown at 37° C. for 18 to 24 hour to reach 85-95% confluence. The cells were then incubated in growth medium (0.5 mL/well) containing ^86Rb^+ (2 μCi/mL) for 4 hour at 37° C. The loading mixture was then aspirated, and the cells were washed four times with 1 mL buffer (15 mM HEPES, 140 mM NaCl, 2 mM KCl, 1 mM MgSO4, 1.8 mM CaCl2, 11 mM Glucose, pH 7.4). One mL of buffer with or without compounds to be tested was then added to each well. After incubation for 2 min, the assay buffer was collected for measurements of ^86Rb^+ released from the cells. Cells were then lysed by adding 1 mL of 100 mM NaOH to each well, and the lysate was collected for determination of the amount of ^86Rb^+ that was in the cells at the end of the efflux assay. Radioactivity of assay samples and lysates was measured by liquid scintillation counting. Total loading (cpm) was calculated as the sum of the assay sample and the lysate of each well. The amount of ^86Rb^+ efflux was expressed as a percentage of ^86Rb^+ loaded. […] For obtaining EC50 and Emax values, stimulation curves were constructed in which 8 different concentrations of a ligand were included in the assay. […] EC50, Emax and IC50(10′) values were determined by nonlinear least-squares regression analyses (GraphPad, San Diego, Calif.).
The functional properties of the ligands were determined by ^86Rb^+ efflux assays in cells expressing α3β4 and α4β2 nAChR subtypes. The functional activity of each ligand was measured for its agonism, antagonism and desensitization ability. Agonist activity for each of the ligands was tested at eight different concentrations. […] The full concentration-effect curves generated potency (EC50) and efficacy (Emax) of each ligand. […] We tested each ligand for antagonist activity at eight concentrations. The potency (IC50(0′)) of each ligand as an antagonist was derived from the full concentration-effect curves.

[2] = test system: alcohol preferring rats (P rats); test: Alcohol intake in alcohol preferring rats; assay type: in vivo, rat
Protocol: In Vivo Effects on Alcohol Intake in Rats. In our initial behavioral studies in an animal model, effects of compound (S)-15 (Scheme 1, YL-1-127) on alcohol self-administration in alcohol preferring rats (P rats) were assessed. Three doses of (S)-15 were tested: 0.33, 1 and 3 mg/kg (s.c.).
General Procedures for Effect on Alcohol Intake in Rats. Adult male rats obtained from a colony of selectively-bred alcohol preferring rats (P rats) maintained at Indiana University School of Medicine. Rats were housed in cages that were fitted with two 100 mL Richter tubes for the recording of water and alcohol intake. Animals were kept under a constant room temperature of 22±1° C. and 12:12 light-dark cycle (7:00 a.m.-7:00 p.m. dark). Animals were fed 5001 Rodent Chow (Lab Diet, Brentwood, Mo., USA). All procedures were approved by the IACUC at Duke University Medical Center.
After a week of handling and habituation, rats were given free access to water in a graduated Richter tube for 1 day. Next, they were given free access only to a solution of 10% (v/v) alcohol for 3 consecutive days. Thereafter, rats were given free access to water and a solution of alcohol throughout the study. Water and alcohol intake were indexed by graduated Richter drinking tubes.
An acute study was conducted to determine a dose-response for compound (S)-15 (YL-1-127). After the establishment of a stable baseline for alcohol and water intake rats were injected subcutaneously with 0.33, 1 and 3 mg/kg of YL-1-127 or the same volume of the vehicle ([…]). Alcohol and water intake were measured at, 2, 4, 6 and 24 hr after the drug administration. The preference for alcohol solution, [(alcohol volume)/(alcohol+water volume)×100], was calculated for the same time points as alcohol and water intake. All animals (n=18) received all treatments following a crossover design with random assignment. The interval between injections was at least 3 days.
Solution of 10% (v/v) alcohol was prepared twice weekly from a solution of […] mixed with tap water. Solutions of YL-1-127 was prepared weekly in 100 mM HCl solution and isotonic saline and was injected subcutaneously in a volume of 1 mL/kg.
The data were assessed by the analysis of variance with a between subjects factor of strain and a repeated measures factor of YL-1-127 dose. Significance was determined at p

SMILES: CCCCC#Cc1cnc(C)c(OC[C@@H]2CCN2)c1 [(S)-15, (S)-3-(azetidin-2-ylmethoxy)-5-(hex-1-ynyl)-2-methylpyridine]
- IC50 [1]: > 10 µM
- alcohol intake ([2]; 1 mg/kg s.c., 24 h, p<0.05): reduced alcohol intake significantly
- alcohol intake ([2]; 3 mg/kg s.c., 6 h, p<0.05): significant effects
- alcohol intake ([2]; 3 mg/kg s.c., 24 h, p<0.0005): significant effects
- alcohol intake ([2]; 0.33, 1 and 3 mg/kg s.c., compared with control vehicle): significantly reduced alcohol intake in a dose dependent manner
